According to patent publication US4112082A (priority 1975, dated 1978):

Columns and labels:
[1] = test system: spider mites (Tetrantychus strain), Resistant Strain; conditions: in vivo
[2] = test system: spider mites (Tetrantychus strain), Normal Strain; conditions: in vivo
mice = conditions: mouse, in vivo, sc; cited from earlier work

Compound | LD50, Resistant Strain [1] | LD50, Normal Strain [2] | LD50 to mice (mice)
CCOC(=O)CC(SP(=S)(OC)OC)C(=O)OCC (stereo not drawn) [malathion] | 40 μg/8 cm^2 | 50 μg/8 cm^2 | 
CN(C)C(=O)Oc1cccc([N+](C)(C)C)c1 [neostigmine] |  |  | 0.42 mg/kg
